Results taken from patent US10959998B2, “Pharmaceutical use and pharmaceutical composition of pyrroloquinoline quinine, its derivatives and/or its salts” (priority 2015, dated 2021).

What was measured:
[1] = tested on: endometrial stromal cells; test: Scratch test (scratch healing, cell migration); format: cell-based, human; conditions: for scratch healing: P<0.05
Method: Before the cells were plated, horizontal lines were scratched on the back of 24-well plate using a blade with the guide of a ruler. For each well, three evenly distributed lines which horizontally crossed the well were scratched. Two days after transfection, the cell fusion rate reached 90%. The wound were created by scratching on the cell layer with micropipette tip in a direction perpendicular to the lines on the back of the plate with the aid of ruler. During the operation, the micropipette tip should be kept perpendicular to the plate, and not tilt to one side. The cells were washed for three times with PBS to remove the exfoliated cells after being scratched, and 1640 culture medium supplemented with 2% FBS was added to the cells. The cells were cultured in an incubator at 37° C., in an air atmosphere containing 5% CO2. The cells were photographed in the same field of view at each indicated time point.

[2] = tested on: hydroxyl radical (.OH) in endometrial stromal cells; test: Determination of hydroxyl radical (.OH) content; format: cell-based, human; conditions: 18 h
Method: Superoxide anion (O2.^−) assay kit was purchased from Nanjing Jiancheng Bioengineering Insitute; Hydroxyl free radical assay kit was purchased from Shanghai Xinyu Biological Technology Co., Ltd., Hydrogen Peroxide Assay Kit was purchased from Beyotime Biotechnology Research Institute. The cells were seeded in 6-well plate at 8×10^5 cells/well, and incubated for 24 h after the cells adhered to the plate. Three different concentrations of PQQ (30 nm, 300 nm and 3 μm) were added to the cultures respectively. The cells were incubated for additional 18 h. At the end of the treatment, the cultured cells were collected. 50 μL samples were added to each cell, followed by addition of 50 μL of antibody working solution. The sample was shaken to achieve a uniform mixture, and reacted at 37° C. for 30 min. The plates were then washed for four to five times. 100 μL of enzyme marker was added to each well. The resulting mixture was allowed to react for 20 min at 37° C. Coloration method: 50 μL of buffer liquid and 50 μL of substrate solution were added to each well in sequence. The mixture solution was gently shaken to achieve a uniform mixing, and coloured for 10 min in the dark at 37° C. […] The optical density at wavelength 560 nm was measured with microplate reader (Read the data in 20 min).

[3] = tested on: hydrogen peroxide (H2O2) in endometrial stromal cells; test: Determination of hydrogen peroxide (H2O2) content; format: cell-based, human; conditions: 18 h
Method: Superoxide anion (O2.^−) assay kit was purchased from Nanjing Jiancheng Bioengineering Insitute; Hydroxyl free radical assay kit was purchased from Shanghai Xinyu Biological Technology Co., Ltd., Hydrogen Peroxide Assay Kit was purchased from Beyotime Biotechnology Research Institute. The cells were seeded in 6-well cell culture plates and incubated for 24 h after the cells adhered to the plate. Three different concentrations PQQ (30 nm, 300 nm and 3 μm) were added to the cultures respectively. After additional 18 h incubation, the cells were lysed using the lysis buffer contained in reagent kit, centrifuged at 12000×g for 5 min at 4° C. 50 μL of sample supernatant was mixed with 100 μL detection solution, rested 30 min at room temperature. The optical density at wavelength 560 nm was measured.

ectopic endometrial foci = test: Endometriosis rat model, weight of transplanted foci; format: in vivo, SD rats
[4] = tested on: ectopic endometrial stromal cells; test: MTT cell proliferation of ectopic endometrial stromal cells; format: cell-based, human
Method: Endometrial tissues were surgically isolated from patients with chocolate cyst of ovary, washed 2 to 3 times with PBS supplemented with antibiotics in ultra-clean cabinet, and cut into tiny pieces (about 1 mm^3 in size) with aseptic scissors. The tissues were digested with 1 mg/ml collagenase type I for 30 to 90 min at 37° C., and continually digested with Dnase I (final concentration of 15 U/ml, 2% Dnase I) for another 30 min. The digested tissues were filtered thorough 60-mesh stainless steel filter cell strainer to remove the undigested cell tissues, and were further filtered with 200- or 400-mesh strainer. The filtered solution was centrifuged at 1000 rpm for 5 min. After removing the supernatants, the cells were washed once with culture medium compounded by DMEM/F12 (1:1 v/v) and 10% fetal bovine serum, re-suspended in the culture medium, and seeded in 6-well tissue culture plate or T25 tissue culture flasks with an appropriate density. After 24 hours incubation, the culture medium was changed to remove the non-adherent blood cells, endothelial cells, macrophages and other miscellaneous cells. After primary human endometrial stromal cells were grown to reach 90% confluence, the cells were digested with 0.25% trypsin for 4 to 6 min, and then subcultured with a split ratio of 1:2 to 1:3. Vimentin which expresses specifically in stromal cells was detected by immuno-fluorescence to measure the cell purity. The cells of purity >95% were used in the following experiments. Primary ectopic endometrial stromal cells of human were subcultured and the subcultured cells of the 3th to 6th passages were chosen as experimental subjects. The cells in logarithmic growth phase were […] and incubated in the cell culture plate at a density of 50%˜60% (i.e. 2×10^4 cells/well). After growing adherent on the wall for 24 hours, the cultured cells were divided into groups and each group was given different doses of PQQ. 20 μL MTT (5 mg/ml in PBS, pH=7.4) was added to each well at indicated time points. The cells were incubated in an incubator at 37° C. in a 5% CO2 atmosphere for 4 h. At the end of incubation, the culture supernatant in each cell was carefully aspirated away. 150 μL DMSO was added to each well. Then the wells were shaken with Orbital shaker for 10 min. The absorbance of each cell was detected at wavelength 490 nm. Finally, the cell proliferation curve was drawn. Primary ectopic endometrial stromal cells were cultured and the subcultured cells of the 3th to 6th passage were chosen as experimental subjects. The cells in logarithmic growth phase were […] and incubated in the cell culture plate at a of 50%˜60% (e.g. 2×10^4 cells/well). The cells grew adhering to the wall for 24 hours before being treated with drugs. The cells were divided into groups and each group was given different dose of PQQ. At indicated time point, 20 μL […] (5 mg/ml in PBS, pH=7.4) was added to every well. The cells were then incubated in an incubator at 37° C. in a 5% CO2 atmosphere for 4 h. After terminating incubation, the culture supernatant in each cell was carefully aspirated away, but formazan crystals should not be aspirated away in any case. 150 μL DMSO was added to each well respectively. All the wells were shaken with Orbital shaker for 10 min to make the crystals adequately solubilized. The absorbance of each cell was detected at wavelength 490 nm. Finally, the cell proliferation curve was drawn.

O=C(O)c1cc(C(=O)O)c2c(n1)C(=O)C(=O)c1cc(C(=O)O)[nH]c1-2 [PQQ, pyrroloquinoline quinone]
migration of endometrial cells (scratch healing) ([1]; PQQ 30 nM, P>0.05): partially restrain the migration of the endometrial cells | scratch healing ([1]; PQQ 300 nM): significantly inhibit scratch healing | scratch coverage rate lower than in the control group ([1]; PQQ 3 μM, 72 h): 42% | scratch healing ([1]; PQQ 3 μM): significantly inhibit scratch healing | relative content of hydroxyl radical (.OH) ([2]; PQQ 300 nM): significantly declined | relative content of hydroxyl radical (.OH) ([2]; PQQ 3 uM): significantly declined | relative content of hydrogen peroxide (H2O2) ([3]; PQQ 300 nM): significantly declined | relative content of hydrogen peroxide (H2O2) ([3]; PQQ 3 uM): significantly declined | weight of ectopic endometrial foci compared with the control group (ectopic endometrial foci; Example 5, rats, after 4 weeks treatment): evidently lower than that from the control group | weight of cysts after treatment (mg) Mean ± SD (ectopic endometrial foci; Example 5, rats, water feeding 4 week, PQQ 1 mg/kg, NAC 10 mg/kg, Resveratro 10 mg/kg, n=9): 71.2 ± 23.2 mg | weight of ectopic cys after treatment (mg) Mean ± SD (ectopic endometrial foci; Example 7, rats, 4 weeks in drinking water, PQQ (disodium salt) 1 mg/kg/day, NAC 10 mg/kg/day, P+N (H) 1+10, P+N (L) 0.2+5 mg/kg/day, n=12): 69.5 ± 12.7 mg | weight of ectopic cyst compared with model control group (ectopic endometrial foci; Example 7, rats, after 4 weeks treatment, PQQ as disodium salt): evidently lower than that in the model control group | cell proliferation compared with the control group ([4]; PQQ 3 um, from 48 h after drug treatment, p<0.01): significantly inhibit cell proliferation | cell proliferation compared with the control group ([4]; PQQ 30 nm, p>0.05): a certain inhibitory effect, but not significant | cell proliferation compared with the control group ([4]; PQQ 300 nm, from 48 h after drug treatment, p<0.01): significantly inhibit cell proliferation
